Legend:
[1] = molecular target: purinergic receptor P2Y12 (Mus musculus, UniProt Q9CPV9); conditions: 3×, S1
Description: Clopidogrel: Clopidogrel (Tocris 2490) was dissolved in dimethyl sulfoxide (DMSO, Sigma, D8418) and diluted 1:4 in phosphate buffer saline (PBS) before the injection.
Perineuronal net density per mm^3. In each image, neurons surrounded by perineuronal nets were counted using the spot detection function of Imaris (Oxford Instruments). The total cell count was normalised to the entire image volume and data are represented as number of cells surrounded by perineuronal nets per mm^3.
Perineuronal net density per mm^3: Each data point represents the count of neurons surrounded by PNN in one image per animal (biological replicates). For all following analyses, cell densities were calculated as a percentage with the respective control set to 100%. Linear regression was used to predict cell density per mm^3 (as absolute values or as percentages compared to the respective control) by experimental condition in cases where more than two levels were involved. Then, a two-sided T-test was then used to investigate differences between experimental conditions in cases where only two levels were involved. P-values were adjusted with the “p.adjust” function and the method set to “BH”.

[2] = tested on: parvalbumin-positive neurons, microglia, astrocytes; experiment: Cell density, apoptosis and astrogliosis in S1 (parvalbumin, Iba1, Caspase3, GFAP immunostaining)
Description: For histological analysis, animals were shortly anesthetized with isoflurane (Zoetis) and secured to the perfusion plate. The chest was open to expose the hearth. […] The animals were initially perfused with 20 mL of phosphate-buffered saline (PBS) with heparin (100 mg/L, Sigma H0878), followed by 20 mL of 4% (w/v) paraformaldehyde (PFA, Sigma P6148) in PBS using a peristaltic pump (Behr PLP 380, speed: 25 rpm). The animals were decapitated, the retina and brain explanted, and post-fixed in 4% (w/v) PFA/PBS for 30 minutes and overnight (16h), respectively. Then, the tissues were washed in PBS and stored at 4° C. with 0.025% (w/v) sodium azide (VWR 786-299). For cryoprotection, the tissue was transferred in 30% (w/v) sucrose (Sigma 84097) in PBS and incubated overnight at 4° C. To increase antibody permeability, the brain slices were frozen over dry-ice and thawed at room temperature for three cycles.
P-values were adjusted with the “p.adjust” function and the method set to “BH”.

[3] = ketamine; cited from earlier work
[4] = tested on: perineuronal net (PNN); experiment: PNN-covered cells (WFA staining) in primary visual cortex (V1); type: in vivo, C57BL/6J mice; conditions: female compared with male
Description: (§1) C57BL/6J mice were intraperitoneal (i.p.) injected in the morning. Deep anaesthesia was confirmed based on the following parameters: • 1. Absence of the toe pinch reflex around 10 minutes after induction. • 2. Decrease in the respiratory frequency. • 3. No responses to external stimuli. • 4. Flaccid paralysis. • 5. Absence of whiskers movement.
(§2) Solution was always freshly prepared to avoid pH fluctuations.
(§3) For histological analysis, animals were shortly anesthetized with isoflurane (Zoetis) and secured to the perfusion plate. The chest was open to expose the hearth. […] The animals were initially perfused with 20 mL of phosphate-buffered saline (PBS) with heparin (100 mg/L, Sigma H0878), followed by 20 mL of 4% (w/v) paraformaldehyde (PFA, Sigma P6148) in PBS using a peristaltic pump (Behr PLP 380, speed: 25 rpm). The animals were decapitated, the retina and brain explanted, and post-fixed in 4% (w/v) PFA/PBS for 30 minutes and overnight (16h), respectively. […]
(§4) Perineuronal net density per mm^3. In each image, neurons surrounded by perineuronal nets were counted using the spot detection function of Imaris (Oxford Instruments). […]
(§5) Perineuronal net density per mm^3: Each data point represents the count of neurons surrounded by PNN in one image per animal (biological replicates). For all following analyses, cell densities were calculated as a percentage with the respective control set to 100%. […]

[5] = tested on: perineuronal net (PNN); experiment: PNN-covered cells (WFA staining) in primary somatosensory cortex after repeated KXA-anaesthesia; type: in vivo, C57BL/6J mice; conditions: female compared with male
Description: as §1, §2, §3, §4, §5

[6] = tested on: gamma oscillations in the brain; experiment: Power spectrum analysis of brain oscillations after repeated ketamine exposure; type: in vivo

Sequence of purinergic receptor P2Y12 (Q9CPV9 whole entry): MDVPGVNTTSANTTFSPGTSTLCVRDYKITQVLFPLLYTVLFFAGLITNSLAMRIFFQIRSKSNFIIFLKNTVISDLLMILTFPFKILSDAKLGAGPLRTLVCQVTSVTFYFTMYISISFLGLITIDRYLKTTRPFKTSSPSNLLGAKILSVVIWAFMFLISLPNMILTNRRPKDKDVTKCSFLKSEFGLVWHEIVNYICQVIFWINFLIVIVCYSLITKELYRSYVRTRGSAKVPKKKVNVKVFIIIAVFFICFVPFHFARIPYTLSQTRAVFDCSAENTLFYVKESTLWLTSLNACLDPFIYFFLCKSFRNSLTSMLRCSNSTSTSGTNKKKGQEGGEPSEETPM

Compound	loss of PNN-covered cells ([1]; 50 mg/Kg clopidogrel i.p. 5 minutes before KXA)	microglia interaction with the PNN structure ([1]; clopidogrel i.p. 5 minutes before KXA)	apoptosis ([2]; repeated ketamine exposure)	parvalbumin-positive neuron density ([2]; repeated ketamine exposure)	astrogliosis (GFAP) ([2]; repeated ketamine exposure (6×KXA))	half-life [3]	sex difference in PNN recovery rate [4]	sex difference in the action (PNN loss) of repeated exposure [5]	60 Hz frequency gamma oscillations in the brain [6]
COC(=O)[C@H](c1ccccc1Cl)N1CCc2sccc2C1 [clopidogrel]	prevented ketamine-mediated loss of PNN-covered cells	microglia showed less interaction with the PNN structure	–	–	–	–	–	–	–
CNC1(c2ccccc2Cl)CCCCC1=O (stereo not drawn) [ketamine, 2-(2-chlorophenyl)-2-(methylamino)cyclohexan-1-one]	–	–	does not induce apoptosis	does not induce apoptosis or alteration in parvalbumin-positive neuron density	nor induce astrogliosis	2 h	recovery rate was similar	accelerated in females	increase in 60 Hz frequency gamma oscillations

Reference: patent publication US20230095907A1, “STIMULATION OF NEURONAL PLASTICITY” (Institute of Science and Technology Austria, priority 2019, published 2023)
